According to paper PMC3385710, “Assessment of 5-HT7 Receptor Agonists Selectivity Using Nociceptive and Thermoregulation Tests in Knockout versus Wild-Type Mice” (Advances in Pharmacological Sciences, 2012):

Columns and labels:
rats = test system: rats; set-up: method as in PMID 16098671; conditions: cited from earlier work
h5-HT2A = target: h5-HT2A; set-up: method as in PMID 19118950, PMID 20399562; conditions: cited from earlier work; for Ki: radioligand binding, read-out: Affinity (Ki (nM)) h5-HT2A
h5-HT2B = target: h5-HT2B; set-up: method as in PMID 19118950, PMID 20399562; conditions: radioligand binding; read-out: Affinity (Ki (nM)) h5-HT2B; cited from earlier work
Other receptors = target: Other receptors; set-up: method as in PMID 19118950, PMID 20399562; conditions: panel of other receptors assayed; read-out: Affinity (Ki (nM)) Other receptors; cited from earlier work
h5-HT6 = target: h5-HT6; set-up: method as in PMID 19118950, PMID 20399562; conditions: radioligand binding; read-out: Affinity (Ki (nM)) h5-HT6; cited from earlier work
h5-HT5A = test system: h5-HT5A; set-up: method as in PMID 19118950, PMID 20399562; conditions: cited from earlier work; for Ki: radioligand binding, read-out: Affinity (Ki (nM)) h5-HT5A
[1] = test system: 5-HT7 receptor knockout mice; test: Formalin test in 5-HT7 receptor knockout mice; format: in vivo; conditions: 15-30 min after formalin, versus vehicle
Description: (§1) Formaldehyde (37 wt.% solution) was purchased from Panreac (Spain) and dissolved in physiological saline. Drugs used for treatments were AS-19 (dimethyl-[5-(1,3,5-tri-methyl-1H-pyrazol-4-yl)-1,2,3,4-tetrahydro-naphthalen-2(S)-yl]-amine), E-55888 (dimethyl-{2-[3-(1,3,5-trimethyl-1H-pyrazol-4-yl)-phenyl]-ethyl}-amine dihydrochloride), and E-57431 (2-(2-(dimethylamino)ethyl)-4-(1,3,5-tri-methyl-1H-pyrazol-4-yl)phenol). AS-19 is a potent selective 5-HT7 receptor agonist commercially available from Tocris Bioscience (UK), whereas E-55888 and E-57431 are 5-HT7 receptor agonists developed by ESTEVE Laboratories (Barcelona, Spain). All three 5-HT7 receptor agonists were synthesized for the purpose of this study at ESTEVE, dissolved in aqueous solutions containing 0.5% (hydroxypropyl) methyl cellulose (Sigma-Aldrich, Spain) and administered in a volume of 5 ml/kg through the subcutaneous (s.c.) route. Doses of drugs (referred to their salt forms) and time of evaluation were selected based on previous studies and on pilot experiments in models used in this study. All treatments were performed under blind conditions in independent groups of mice and behavioral evaluation was done 30 min after drug administration.
(§2) Formalin (20 μL of a 2.5% formalin solution; 0.92% of formaldehyde) was injected into the dorsal surface on the right hind paw, as previously described. […] Mice were placed on a paper surface surrounded by a plexiglas cylinder (20 × 25 cm) and the time spent licking and biting the injected paw was measured using a chronometer. A time course of the licking/biting behaviors was monitored during 45 minutes after formalin injection to evaluate possible differences between genotypes. Drug effects were quantified at 0–5 min (phase I) and 15–30 min (phase II) after formalin injection, two periods of time in which the formalin-induced licking and biting time was high enough to test antinociceptive effects of drugs.

gp5-HT4 = target: gp5-HT4; set-up: method as in PMID 19118950, PMID 20399562; conditions: radioligand binding; read-out: Affinity (Ki (nM)) gp5-HT4; cited from earlier work
h5-HT1D = conditions: cited from earlier work; for Affinity ratio versus 5-HT7 receptors (Ki h5-HT1D/Ki 5-HT7): number-fold higher for 5-HT7 than for the tested receptor; for Ki: radioligand binding, read-out: Affinity (Ki (nM)) h5-HT1D
h5-HT3 = target: h5-HT3; set-up: method as in PMID 19118950, PMID 20399562; conditions: radioligand binding; read-out: Affinity (Ki (nM)) h5-HT3; cited from earlier work
h5-HT1A = conditions: cited from earlier work; for Affinity ratio versus 5-HT7 receptors (Ki h5-HT1A/Ki 5-HT7): number-fold higher for 5-HT7 than for the tested receptor; for Ki: radioligand binding, read-out: Affinity (Ki (nM)) h5-HT1A
h5-HT transporter (SERT) = target: h5-HT transporter (SERT); set-up: method as in PMID 19118950, PMID 20399562; conditions: radioligand binding; read-out: Affinity (Ki (nM)) h5-HT transporter (SERT); cited from earlier work
wild-type mice [2] = test: Formalin test in wild-type mice; format: in vivo; conditions: 15-30 min after formalin, versus vehicle
Description: as §1, §2

h5-HT7 [3] = target: h5-HT7; set-up: method as in PMID 19118950, PMID 20399562; conditions: radioligand binding; read-out: Affinity (Ki (nM)) h5-HT7; cited from earlier work
h5-HT7 [4] = test system: h5-HT7; set-up: method as in PMID 19118950, PMID 20399562; conditions: HEK-293F/h5-HT7 cells, cited from earlier work; for EC50: read-out: EC50, cAMP formation; for Maximal effect (E max), cAMP formation: relative to that of 5-HT
r5-HT1B = test system: r5-HT1B; set-up: method as in PMID 19118950, PMID 20399562; conditions: cited from earlier work; for Ki: radioligand binding, read-out: Affinity (Ki (nM)) r5-HT1B
h5-HT2C = target: h5-HT2C; set-up: method as in PMID 19118950, PMID 20399562; conditions: radioligand binding; read-out: Affinity (Ki (nM)) h5-HT2C; cited from earlier work
[5] = test system: 5-HT7 receptor knockout mice; test: Rectal (body) temperature in 5-HT7 receptor knockout mice; format: in vivo; conditions: for Effect on body temperature: 30 min after administration
Description: as §1
(§3) The body temperature was recorded using a precision thermometer (YSI 4600) equipped with a flexible probe (YSI 402). This probe was lubricated with vaseline and inserted 2 cm into the rectum. Temperature recordings were made 20 s following insertion of the probe, as previously described.

wild-type mice [6] = test: Rectal (body) temperature in wild-type mice; format: in vivo; conditions: for Effect on body temperature: 30 min after administration
Description: as §1, §3

h5-HT4e = target: h5-HT4e; set-up: method as in PMID 19118950, PMID 20399562; conditions: radioligand binding; read-out: Affinity (Ki (nM)) h5-HT4e; cited from earlier work
dopamine D2 receptor = test system: dopamine D2 receptor; set-up: method as in PMID 17649988; conditions: cited from earlier work
[7] = test system: 5-HT1B, 5-HT2B, 5-HT2C, and 5-HT5A; set-up: method as in PMID 20600619; conditions: cited from earlier work
5-HT1A = test system: 5-HT1A; set-up: method as in PMID 14741267; conditions: cited from earlier work
[8] = number-fold higher for 5-HT7 than for the tested receptor

| SMILES | Ki (h5-HT2A) | Ki (h5-HT2B) | Ki (Other receptors) | Ki (h5-HT6) | Ki (h5-HT5A) | Ki (h5-HT1D) | Ki (h5-HT3) | Ki (h5-HT1A) | Ki (h5-HT transporter (SERT)) | Ki (h5-HT7 [3]) | EC50 (h5-HT7 [4]) | Maximal effect (E max), cAMP formation (h5-HT7 [4]) | Ki (r5-HT1B) | Ki (h5-HT2C) | Effect on body temperature ([5]; 20 mg/kg s.c.) | Effect on body temperature (wild-type mice [6]; 20 mg/kg s.c.) | also measured |
| --- | --- | --- | --- | --- | --- | --- | --- | --- | --- | --- | --- | --- | --- | --- | --- | --- | --- |
| NCCc1c[nH]c2ccc(C(N)=O)cc12 [5-carboxamidotryptamine] | – | – | – | – | – | – | – | – | – | – | – | – | – | – | – | – | Phase II formalin-induced nociceptive behavior (rats; intraplantar or spinal administration): increased |
| Cc1nn(C)c(C)c1-c1cccc2c1CC[C@H](N(C)C)C2 [AS-19, dimethyl-[5-(1,3,5-tri-methyl-1H-pyrazol-4-yl)-1,2,3,4-tetrahydro-naphthalen-2(S)-yl]-amine, reference compound] | > 1000 nM | > 1000 nM | > 1000 nM | > 1000 nM | 98.5 nM | 6.6 nM | > 1000 nM | 89.7 nM | > 1000 nM | 0.6 nM | 9 ± 1 nM | 77% | 490 nM | > 1000 nM | significantly reduced | significantly reduced | Affinity ratio versus 5-HT7 receptors (Ki h5-HT5A/Ki 5-HT7) (h5-HT5A; [8]): 164.2 x; Formalin phase II licking/biting time significantly reduced ([1]; 10 mg/kg s.c.): not; Ki (gp5-HT4): > 1000 nM; Affinity for 5-HT7 higher than for 5-HT1D (h5-HT1D): 11 fold; Affinity ratio versus 5-HT7 receptors (Ki h5-HT1D/Ki 5-HT7) (h5-HT1D): 11 x; Affinity ratio versus 5-HT7 receptors (Ki h5-HT1A/Ki 5-HT7) (h5-HT1A): 149.5 x; Formalin phase II licking/biting time (wild-type mice [2]; 10 mg/kg s.c.): significant reduction; Affinity ratio versus 5-HT7 receptors (Ki r5-HT1B/Ki 5-HT7) (r5-HT1B; [8]): 816.6 x; Effect on body temperature ([5]; 10 mg/kg s.c.): did not significantly change; Body temperature reduction ([5]; 20 mg/kg s.c.): 2.4 °C; Effect on body temperature (wild-type mice [6]; 10 mg/kg s.c.): did not significantly change; Body temperature reduction (wild-type mice [6]; 20 mg/kg s.c.): 3.8 °C |
| Cc1nn(C)c(C)c1-c1cccc(CCN(C)C)c1.Cl.Cl [E-55888, dimethyl-{2-[3-(1,3,5-trimethyl-1H-pyrazol-4-yl)-phenyl]-ethyl}-amine dihydrochloride] | > 1000 nM | > 1000 nM | > 1000 nM | > 1000 nM | > 1000 nM | > 1000 nM | > 1000 nM | 700 nM | > 1000 nM | 2.5 nM | 16 ± 1 nM | 99 ± 1% | > 1000 nM | > 1000 nM | did not significantly change | did not significantly change | Ki (h5-HT4e): > 1000 nM; Formalin phase II licking/biting time significantly reduced ([1]; 20 mg/kg s.c.): not; Affinity for 5-HT7 higher than for 5-HT1A (h5-HT1A): 280 fold; Affinity ratio versus 5-HT7 receptors (Ki h5-HT1A/Ki 5-HT7) (h5-HT1A): 280 x; Formalin phase II licking/biting time (wild-type mice [2]; 20 mg/kg s.c.): significant reduction |
| Cc1nn(C)c(C)c1-c1ccc(O)c(CCN(C)C)c1 [E-57431, 2-(2-(dimethylamino)ethyl)-4-(1,3,5-tri-methyl-1H-pyrazol-4-yl)phenol] | 560 nM | > 1000 nM | > 1000 nM | > 1000 nM | > 1000 nM | 53 nM | > 1000 nM | > 1000 nM | > 1000 nM | 0.47 nM | 21.5 ± 1 nM | 94.5 ± 1% | > 1000 nM | > 1000 nM | significantly reduced | significantly reduced | Affinity ratio versus 5-HT7 receptors (Ki h5-HT2A/Ki 5-HT7) (h5-HT2A; [8]): 1191.5 x; Ki (h5-HT4e): > 1000 nM; Formalin phase II licking/biting time significantly reduced ([1]; 10 mg/kg s.c.): not; Ki (gp5-HT4): > 1000 nM; Affinity for 5-HT7 higher than for 5-HT1D (h5-HT1D): 112.7 fold; Affinity ratio versus 5-HT7 receptors (Ki h5-HT1D/Ki 5-HT7) (h5-HT1D): 112.7 x; Formalin phase II licking/biting time (wild-type mice [2]; 10 mg/kg s.c.): significant reduction; Effect on body temperature ([5]; 10 mg/kg s.c.): did not significantly change; Body temperature reduction ([5]; 20 mg/kg s.c.): 2.3 °C; Effect on body temperature (wild-type mice [6]; 10 mg/kg s.c.): did not significantly change; Body temperature reduction (wild-type mice [6]; 20 mg/kg s.c.): 1.1 °C |
| N#Cc1ccc(CNC(=O)CCCCCN2CCN(c3ccccc3-c3ccccc3)CC2)cc1 [LP-211] | – | – | – | – | – | – | – | – | – | – | – | – | – | – | – | – | Affinity for 5-HT7 higher than for dopamine D2 receptor (dopamine D2 receptor): 33 fold; Affinity for 5-HT7 higher than for 5-HT1B, 5-HT2B, 5-HT2C, and 5-HT5A [7]: 5-14 fold |
| CN(C)CCSc1cccc(-c2ccccc2)n1 [MSD-5a] | – | – | – | – | – | – | – | – | – | – | – | – | – | – | – | – | Affinity for 5-HT7 higher than for 5-HT1A (5-HT1A): 28.6 fold |
| CC1CCN(CC[C@H]2CCCN2S(=O)(=O)c2cccc(O)c2)CC1 [SB-269970, (R)-3-(2-(2-(4-methylpiperidin-1-yl)-ethyl)pyrrolidine-1-sulfonyl)phenol] | – | – | – | – | – | – | – | – | – | – | – | – | – | – | – | – | Effect on 5-carboxamidotryptamine-induced increase of phase II formalin nociceptive behavior (rats): significantly reversed |
